Read-outs that look alike come from different tables or passages of the source. Bounds are passed on as bounds.

Results on 25 compounds are retold here after patent US20230031406A1, “COMPOUNDS AND COMPOSITIONS FOR TREATING CONDITIONS ASSOCIATED WITH NLRP ACTIVITY” (Novartis AG, priority 2018, published 2023).

In this test the test system is PMA-differentiated THP-1 cells. Kind of test: IL-1β production in PMA-differentiated THP-1 cells stimulated with gramicidin (hTHP-1 assay containing 2% fetal bovine serum; Procedures 1 and 2). In kind it is cell-based, human. Particulars: 2% fetal bovine serum. Put shortly:
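Secreted IL-1β, read by HTRF, after gramicidin challenge (5 μM, 2 h) of THP-1 cells differentiated with PMA (20 ng/ml, 16-18 h) and plated at 50,000 cells/well in 2% FBS medium. Compounds, 0.0017-100 μM final with 0.37% DMSO, were added 1 h before stimulation.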

[1] abbreviates: Homo sapiens, THP-1, Table B1, class symbols, read-out: Average IC50 of compounds in hTHP-1 assay: hTHP-1 IC50.
Setting [2] is: Homo sapiens, THP-1, Table B1, numeric bounds, read-out: Average IC50 of compounds in hTHP-1 assay: hTHP-1 IC50.
Where [3] appears, read: Homo sapiens, THP-1, Table B2, class symbols, read-out: hTHP-1 IC50.
Setting [4] is: Table B2, class symbols, read-out: hTHP-1 IC50.
[5] abbreviates: Table B3, hTHP-1 assay, class symbols, read-out: IC50.
Where [6] appears, read: Table B1, class symbols, read-out: Average IC50 of compounds in hTHP-1 assay: hTHP-1 IC50.

In general, IC50 refers to the concentration that gives 50% inhibition. Consider `CC(C)(O)c1nc(CO)c(S(N)(=O)=NC(=O)Nc2c3c(nc4c2CCC4(C)C)CCC3)s1` (centres unmarked) [Compound 121, N′-((3,3-dimethyl-1,2,3,5,6,7-hexahydrodicyclopenta[b,e]pyridin-8-yl)carbamoyl)-4-(hydroxymethyl)-2-(2-hydroxypropan-2-yl)thiazole-5-sulfonimidamide], for which the half-maximal inhibitory concentration (IC50) under setting [1] is 0.2 to 1 µM.
In the case of `CC(C)c1ncc(F)c(C(C)C)c1NC(=O)N=S(N)(=O)c1ccc(CN(C)C)cc1` (centres unmarked) [Compound 132, 4-((dimethylamino)methyl)-N′-((5-fluoro-2,4-diisopropylpyridin-3-yl)carbamoyl)benzenesulfon-imidamide], the concentration for half-maximal inhibition (IC50) under setting [2] is > 27 µM.
With `CC(C)(O)c1cc(F)c([S@](N)(=O)=NC(=O)Nc2cc(CC(F)(F)F)nc3c2CCC3)s1` [Compound 602b], the half-inhibitory concentration (IC50) under setting [3] was in the range of 1 to 5 µM.
In the case of `Cc1c(C2(F)CC2)nc2c(c1NC(=O)N=S(N)(=O)c1cc(C(C)(C)O)cs1)CCC2` (centres unmarked) [Compound 722], under setting [3], the 50% inhibitory concentration (IC50) fell in the range of 1 to 5 µM.
Turning to `NS(=O)(=NC(=O)Nc1c2c(nc3c1CCC3)CCC2)c1ccn(CC(F)(F)F)n1` (single isomer, unassigned) [Compound 685a, (S) or (R)-N′-((1,2,3,5,6,7-hexahydrodicyclopenta [b,e]pyridin-8-yl)carbamoyl)-1-(2,2,2-trifluoroethyl)-1H-pyrazole-3-sulfonimidamide], the half-inhibitory concentration (IC50) (Homo sapiens, THP-1, Table B2, numeric bounds, read-out: hTHP-1 IC50) is > 30 µM.
For `CCC1CCc2c1nc1c(c2NC(=O)N=S(N)(=O)c2sc(C(C)(C)O)cc2F)CCC1` (centres unmarked) [Compound 671, N′-((3-ethyl-1,2,3,5,6,7-hexahydrodicyclopenta[b,e]pyridin-8-yl)carbamoyl)-3-fluoro-5-(2-hydroxypropan-2-yl)thiophene-2-sulfonimidamide], under setting [4], the IC50 fell in the range of 1 to 5 µM.
As for `CC(C)n1nc(S(N)(=O)=NC(=O)Nc2c3c(nc4c2CCC42CC2)CCC3)cc1CO` (single isomer, unassigned) [Example 642, (S) or (R)-5-(hydroxymethyl)-1-isopropyl-N′-((1′,5′,6′,7′-tetrahydro-2′H-spiro[cyclopropane-1,3′-dicyclopenta[b,e]pyridin]-8′-yl)carbamoyl)-1H-pyrazole-3-sulfonimidamide], the concentration for half-maximal inhibition (IC50) (Homo sapiens, THP-1, Table B3, hTHP-1 assay, numeric values, read-out: IC50) is > 30 µM.
Take `Cc1cc(C2CC2)nc(NC(=O)N=S(N)(=O)c2ncc(C(C)(C)O)s2)n1` (single isomer, unassigned) [Compound 185a, (R) or (S)-N′-((4-cyclopropyl-6-methylpyrimidin-2-yl)carbamoyl)-5-(2-hydroxypropan-2-yl)thiazole-2-sulfonimidamide]: the IC50 lay in the range of 5 to 30 µM under setting [1] and 5 to 30 µM under setting [3].
Turning to `Cn1nc(S(N)(=O)=NC(=O)Nc2c3c(nc4c2CCC4)CCC3)cc1C(C)(C)O` (single isomer, unassigned) [Compound 158b, (S) or (R)-N′-((1,2,3,5,6,7-hexahydrodicyclo-penta[b,e]pyridin-8-yl)carbamoyl)-5-(2-hydroxypropan-2-yl)-1-methyl-1H-pyrazole-3-sulfonimidamide], under setting [2], the IC50 is > 30 µM.
Consider `Cc1c(C(F)F)nc2c(c1NC(=O)N=S(N)(=O)c1cnc(C(C)(C)O)s1)CCC2` (centres unmarked) [Compound 647, N′-((2-(difluoromethyl)-3-methyl-6,7-dihydro-5H-cyclopenta[b]pyridin-4-yl)carbamoyl)-2-(2-hydroxypropan-2-yl)thiazole-5-sulfonimidamide], for which the IC50 under setting [3] lay in the range of 1 to 5 µM.
Turning to `COCc1nc(C(C)(C)O)sc1S(N)(=O)=NC(=O)Nc1c2c(nc3c1CCC3)CCC2` (single isomer, unassigned) [Compound 689b, (R) or (S)-N′-((1,2,3,5,6,7-hexahydrodicyclopenta [b,e]pyridin-8-yl)carbamoyl)-2-(2-hydroxypropan-2-yl)-4-(methoxymethyl) thiazole-5-sulfonimidamide], the IC50 under setting [3] is 5 to 30 µM.
With `CCn1cc(F)c(S(N)(=O)=NC(=O)Nc2c(-c3ccccc3)cnc3c2CCC3)n1` (single isomer, unassigned) [Example 794, (S) or (R)-1-ethyl-4-fluoro-N′-((3-phenyl-6,7-dihydro-5H-cyclopenta[b]pyridin-4-yl)carbamoyl)-1H-pyrazole-3-sulfonimidamide], for the setting “Table B4, class symbols, read-out: hTHP-1 IC50”, the IC50 lay within 5 to 30 µM.
As to `CC(C)(O)c1cc(S(N)(=O)=NC(=O)Nc2c3c(nc4c2CCC4(C)C)CCC3)nn1-c1ccc(F)cc1` (centres unmarked) [Compound 704, N′-((3,3-dimethyl-1,2,3,5,6,7-hexahydrodicyclopenta[b,e]pyridin-8-yl)carbamoyl)-1-(4-fluorophenyl)-5-(2-hydroxypropan-2-yl)-1H-pyrazole-3-sulfonimidamide], the concentration for half-maximal inhibition (IC50) under setting [3] was 1 to 5 µM.
As to `NS(=O)(=NC(=O)Nc1c2c(nc3c1CCC31CC1)CCC2)c1nn(C(F)F)cc1F` (single isomer, unassigned) [Example 681, (R) or (S)-1-(difluoromethyl)-4-fluoro-N′-((1′,5′,6′,7′-tetrahydro-2′H-spiro[cyclopropane-1,3′-dicyclopenta[b,e]pyridin]-8′-yl)carbamoyl)-1H-pyrazole-3-sulfonimidamide], the IC50 under setting [5] lay in the range of 0.04 to 0.2 µM.
As for `Cc1c(C(F)(F)F)nc2c(c1NC(=O)N=S(N)(=O)c1ccn(C(F)F)n1)CCC2` (single isomer, unassigned) [Compound 621b, (R) or (S)-1-(Difluoromethyl)-N′-((3-methyl-2-(trifluoromethyl)-6,7-dihydro-5H-cyclopenta[b]pyridin-4-yl)carbamoyl)-1H-pyrazole-3-sulfonimidamide], the 50% inhibitory concentration (IC50) under setting [4] fell in the range of 1 to 5 µM.
Take `CC1CCc2c1nc1c(c2NC(=O)N=S(N)(=O)c2cn(C(C)C)cn2)CCC1` (single isomer, unassigned) [Compound 660d, (R, R) or (S, R) or (R, S) or (S, S)-1-isopropyl-N′-((3-methyl-1,2,3,5,6,7-hexahydrodicyclopenta [b,e]pyridin-8-yl)carbamoyl)-1H-imidazole-4-sulfonimidamide]: the concentration for half-maximal inhibition (IC50) under setting [3] fell in the range of 5 to 30 µM.
Regarding `CC(C)c1c(C2CC2)nc2c(c1NC(=O)N=S(N)(=O)c1cc(C(C)(C)O)cs1)CCC2` (single isomer, unassigned) [Compound 667b, (R) or (S)-N′-((2-cyclopropyl-3-isopropyl-6,7-dihydro-5H-cyclopenta[b]pyridin-4-yl)carbamoyl)-4-(2-hydroxypropan-2-yl)thiophene-2-sulfonimidamide], the 50% inhibitory concentration (IC50) under setting [4] lay in the range of 0.2 to 1 µM.
Consider `Cc1c(C(F)(F)F)nc2c(c1NC(=O)N=S(N)(=O)c1cnc(C(C)(O)CO)s1)CCC2` (centres unmarked) [Compound 605, 2-(1,2-Dihydroxypropan-2-yl)-N′-((3-methyl-2-(trifluoromethyl)-6,7-dihydro-5H-cyclopenta[b]pyridin-4-yl)cabamoyl)thiazole-5-sulfonimidamide], for which the 50% inhibitory concentration (IC50) under setting [4] is 0.2 to 1 µM.
Turning to `Cc1c(C(F)(F)F)nc2c(c1NC(=O)N=S(N)(=O)c1ccn(C)n1)CCC2` (single isomer, unassigned) [Example 693, (R) or (S)-1-Methyl-N′-((3-methyl-2-(trifluoromethyl)-6,7-dihydro-5H-cyclopenta[b]pyridin-4-yl)carbamoyl)-1H-pyrazole-3-sulfonimidamide], where the note is “Homo sapiens, THP-1, Table B3, hTHP-1 assay, class symbols, read-out: IC50”, the IC50 fell in the range of 1 to 5 µM.
As for `CCn1cc(F)c(S(N)(=O)=NC(=O)Nc2c3c(nc4c2CC[C@@H]4C)CCC3)n1` (single isomer, unassigned) [Example 712, (S) or (R)-1-ethyl-4-fluoro-N′-(((S)-3-methyl-1,2,3,5,6,7-hexahydrodicyclopenta[b,e]pyridin-8-yl)carbamoyl)-1H-pyrazole-3-sulfonimidamide], under setting [5], the IC50 lay in the range of 5 to 30 µM.
As to `CC1CCc2c1nc1c(c2NC(=O)N=S(N)(=O)c2cc(C(C)(C)O)cs2)CCC1` (single isomer, unassigned) [Compound 141ab, (R,S) or (R,R)-4-(2-hydroxypropan-2-yl)-N′-((3-methyl-1,2,3,5,6,7-hexahydro-dicyclopenta[b,e]pyridin-8-yl)carbamoyl)thiophene-2-sulfonimidamide], under setting [1], the IC50 was 0.2 to 1 µM.
As to `Cc1sc(S(N)(=O)=NC(=O)Nc2c3c(nc4c2CCC4C)CCC3)nc1C(C)(C)O` (single isomer, unassigned) [Compound 104a, (R,R/S) or (S,R/S)-4-(2-hydroxypropan-2-yl)-5-methyl-N′-((3-methyl-1,2,3,5,6,7-hexahydrodicyclo-penta[b,e]pyridin-8-yl)carba-moyl)thiazole-2-sulfonimidamide], the IC50 under setting [6] was 0.2 to 1 µM.
Take `Cc1c(C(F)(F)F)nc2c(c1NC(=O)N=S(N)(=O)c1cnc(C(C)(O)CO)s1)CCC2` (single isomer, unassigned) [Compound 605g, (S, S) or (R, S)-2-(1,2-Dihydroxypropan-2-yl)-N′-((3-methyl-2-(trifluoromethyl)-6,7-dihydro-5H-cyclopenta[b]pyridin-4-yl)carbamoyl) thiazole-5-sulfonimidamide]: the IC50 under setting [4] is 5 to 30 µM.
Turning to `Cc1sc(S(N)(=O)=NC(=O)Nc2c3c(nc4c2CCC4C)CCC3)nc1C(C)(C)O` (centres unmarked) [Compound 104, 4-(2-Hydroxypropan-2-yl)-5-methyl-N′-((3-methyl-1,2,3,5,6,7-hexahydrodicyclopenta[b,e]pyridin-8-yl)carbamoyl)thiazole-2-sulfonimidamide], the IC50 under setting [6] lay within 0.2 to 1 µM.
On the same count and under the same terms, then `CC1CCc2c1nc1c(c2NC(=O)N=S(N)(=O)c2cc(C(C)(C)O)cs2)CCC1C` (centres unmarked) [Compound 131, N′-((3,5-dimethyl-1,2,3,5,6,7-hexahydrodicyclopenta[b,e]pyridin-8-yl)carbamoyl)-4-(2-hydroxypropan-2-yl)thiophene-2-sulfonimidamide], with 0.2 to 1 µM.
